Assay results published in the NIST ThermoML archive (doi:10.1016/j.tca.2006.04.016).

Details: 101.33 kPa, Liquid, Vibrating tube method

CN(C)CCCN [N,N-dimethyl-1,3-propanediamine]
Details | mass density [kg/m3]
278.15 K | 830.37
278.65 K | 829.93
279.15 K | 829.49
279.65 K | 829.05
280.15 K | 828.61
280.65 K | 828.17
281.15 K | 827.73
281.65 K | 827.29
282.15 K | 826.84
282.65 K | 826.4
283.15 K | 825.96
283.65 K | 825.52
284.15 K | 825.08
284.65 K | 824.64
285.15 K | 824.2
285.65 K | 823.76
286.15 K | 823.32
286.65 K | 822.88
287.15 K | 822.44
287.65 K | 822
288.15 K | 821.56
288.65 K | 821.12
289.15 K | 820.67
289.65 K | 820.23
290.15 K | 819.79
290.65 K | 819.35
291.15 K | 818.91
291.65 K | 818.47
292.15 K | 818.03
292.65 K | 817.58
293.15 K | 817.14
293.65 K | 816.7
294.15 K | 816.26
294.65 K | 815.82
295.15 K | 815.37
295.65 K | 814.93
296.15 K | 814.49
296.65 K | 814.05
297.15 K | 813.6
297.65 K | 813.16
298.15 K | 812.72
298.65 K | 812.27
299.15 K | 811.83
299.65 K | 811.39
300.15 K | 810.94
300.65 K | 810.5
301.15 K | 810.06
301.65 K | 809.61
302.15 K | 809.17
302.65 K | 808.72
303.15 K | 808.28
303.65 K | 807.84
304.15 K | 807.39
304.65 K | 806.95
305.15 K | 806.5
305.65 K | 806.06
306.15 K | 805.61
306.65 K | 805.17
307.15 K | 804.72
307.65 K | 804.28
308.15 K | 803.83
308.65 K | 803.39
309.15 K | 802.94
309.65 K | 802.5
310.15 K | 802.05
310.65 K | 801.61
311.15 K | 801.16
311.65 K | 800.72
312.15 K | 800.27
312.65 K | 799.82
313.15 K | 799.38
313.65 K | 798.93
314.15 K | 798.48
314.65 K | 798.04
315.15 K | 797.59
315.65 K | 797.14
316.15 K | 796.69
316.65 K | 796.25
317.15 K | 795.8
317.65 K | 795.35
318.15 K | 794.9
318.65 K | 794.45
319.15 K | 794.01
319.65 K | 793.56
320.15 K | 793.11
320.65 K | 792.66
321.15 K | 792.21
321.65 K | 791.76
322.15 K | 791.31
322.65 K | 790.86
323.15 K | 790.41
323.65 K | 789.96
324.15 K | 789.52
324.65 K | 789.06
325.15 K | 788.62
325.65 K | 788.17
326.15 K | 787.72
326.65 K | 787.26
327.15 K | 786.81
327.65 K | 786.36
328.15 K | 785.91
328.65 K | 785.46
329.15 K | 785.01
329.65 K | 784.56
330.15 K | 784.11
330.65 K | 783.65
331.15 K | 783.2
331.65 K | 782.75
332.15 K | 782.3
332.65 K | 781.84
333.15 K | 781.39
333.65 K | 780.94
334.15 K | 780.49
334.65 K | 780.03
335.15 K | 779.58
335.65 K | 779.12
336.15 K | 778.67
336.65 K | 778.22
337.15 K | 777.76
337.65 K | 777.31
338.15 K | 776.85
338.65 K | 776.4
339.15 K | 775.94
339.65 K | 775.49
340.15 K | 775.03
340.65 K | 774.57
341.15 K | 774.11
341.65 K | 773.66
342.15 K | 773.2
342.65 K | 772.74
343.15 K | 772.29
343.65 K | 771.83
344.15 K | 771.37
344.65 K | 770.91
345.15 K | 770.45
345.65 K | 769.99
346.15 K | 769.53
346.65 K | 769.08
347.15 K | 768.62
347.65 K | 768.16
348.15 K | 767.7
348.65 K | 767.24
349.15 K | 766.78
349.65 K | 766.32
350.15 K | 765.86
350.65 K | 765.4
351.15 K | 764.94
351.65 K | 764.48
352.15 K | 764.02
352.65 K | 763.56
353.15 K | 763.1
353.65 K | 762.64
354.15 K | 762.17
354.65 K | 761.71
355.15 K | 761.25
355.65 K | 760.79
356.15 K | 760.33
356.65 K | 759.86
357.15 K | 759.4
357.65 K | 758.94
358.15 K | 758.48
358.65 K | 758.01
359.15 K | 757.55
359.65 K | 757.08
360.15 K | 756.62
360.65 K | 756.15
361.15 K | 755.69
361.65 K | 755.22
362.15 K | 754.75
362.65 K | 754.28
363.15 K | 753.82
